From patent publication US20040103452A1, “Inducible apomixis” (priority 2001, published 2004) come the findings set out here.

The experiment relates to Arabidopsis thaliana Ler x transgenic WS (AtLTP1::AtSERK1) F1 plants. In words: SSLP analysis of F2 progeny for apomictic plants after 2,4-D application to F1 flower buds. Type of experiment: in vivo. The settings on record: flower buds dipped in 2 μM 2,4-D 1 to 2 days pre-anthesis, repeated twice. Here is the method: Transgenic T3 Arabidopsis thaliana ecotype WS plants, i.e. transgenic plants in the third generation after transformation, that are homozygous for the AtLTP1::AtSERK1 construct are used as male donor to pollinate Arabidopsis thaliana ecotype Landsberg erecta (L r) plants. The flower buds of the F1 plants at stage 11 to 12 (Smyth et al., The Plant Cell 2: 755, 1990) approximately 1 to 2 days pre-anthesis are dipped in an aqueous solution containing 2 μM 2,4-D supplemented with 0.04% (v/v) Triton X-100 as a surfactant as described by Vivian-Smith et al., (Plant Physiol. 121: 437, 1999). The treatment is repeated twice in a two-day period and plants are left to set F2 seeds. In parallel a control cross between wild-type Ler female and wild-type WS male plant is made to obtain F1 plants. Those F1 plants are designated as wild-type F1 plants and they are analysed in the same way as the transgenic F1 plants except that they are not auxin treated.
The F2 seeds are grown into seedlings and a few rosette leaves from each plant are used for DNA extraction as described by Ponce et al., Mol. Gen. Genet. 261: 408, 1999. Simple Sequence Length Polymorphism (SSLP) analysis is carried out by simultaneous amplification of 11 SSLP markers (see Table 1) using multiplex PCR with fluorescently labeled primers as described by Ponce et al. supra. […]

`O=C(O)COc1ccc(Cl)cc1Cl` [2, 4 D, 2,4-dichlorophenoxyacetic acid]: the “Plants h t rozygous for 11 SSLP markers Observed” value is reported as 0 (AtLTP::AtSERK1 cross No 14 (line with lower SERK1 level), 144 F2 plants analyzed) and 2 (AtLTP::AtSERK1 cross No 15, 175 F2 plants analyzed).
